Assay results from US7728193B2, “Phytochrome-interacting protein and a use thereof” (Genomine Inc., priority 2004, dated 2010).

How the values were obtained:
[1] = tested on: autophosphorylated oat phytochrome A; test: Dephosphorylation of autophosphorylated phytochrome by PAPP5 in vitro; type: biochemical; settings: Rc 664 nm or FRc 748 nm irradiation for 5 minutes
Protocol: First, KP buffer (20 mM Tris-HCl pH7.5, 30 mM MgCl2, 1 mM EDTA, 1 mM EGTA, 0.1% β-mercaptoethanol, 0.1% ethanol) containing 1 μg of purified oat phytochrome A (provided from Kumho Life and Environmental Science Laboratory, Korea) was set on ice and irradiated with Rc light output of 50 μmolS^−1m^−2 at 664 nm for 5 minutes. Then, the reaction solution was allowed to react with [γ-^32P]ATP in dark conditions for 30 minutes (autophosphorylation of phytochrome A). Following addition of 1 μg of each of the fusion proteins GST-PAPP5, GST-TPR and GST-PP2Ac prepared in Examples <4-1> and <5-1>, the reaction continued for more 30 minutes, and then stopped by adding 12 μl of 5× Tris-glycine SDS sample buffer under dim green safe light.
Next, the present inventors investigated whether the phosphatase activity of PAPP5 depends on a change in the spectroscopic structure (photoconversion) of phytochrome molecules (Pr⇄Pfr). KP buffer solution containing phytochrome was set on ice and irradiated with a Rc light output of 50 μmolS^−1m^−2 at 664 nm (conversion of phytochrome into Pfr form) or a FRc light output of 50 μmolS^−1m^−2 at 748 nm (conversion of phytochrome into […]) for 5 minutes. Then, the autophosphylation/dephosphorylation test of phytochrome was performed in the same manner as described above.

phytochrome B = molecular target: T1, phytochrome B (Arabidopsis thaliana, UniProt P14713); test: In vitro binding assay (GST pull-down of 35S-labeled TnT protein); settings: 1 μg GST-PAPP5 fusion protein, 4° C.
T1 sequence (P14713 1-1172): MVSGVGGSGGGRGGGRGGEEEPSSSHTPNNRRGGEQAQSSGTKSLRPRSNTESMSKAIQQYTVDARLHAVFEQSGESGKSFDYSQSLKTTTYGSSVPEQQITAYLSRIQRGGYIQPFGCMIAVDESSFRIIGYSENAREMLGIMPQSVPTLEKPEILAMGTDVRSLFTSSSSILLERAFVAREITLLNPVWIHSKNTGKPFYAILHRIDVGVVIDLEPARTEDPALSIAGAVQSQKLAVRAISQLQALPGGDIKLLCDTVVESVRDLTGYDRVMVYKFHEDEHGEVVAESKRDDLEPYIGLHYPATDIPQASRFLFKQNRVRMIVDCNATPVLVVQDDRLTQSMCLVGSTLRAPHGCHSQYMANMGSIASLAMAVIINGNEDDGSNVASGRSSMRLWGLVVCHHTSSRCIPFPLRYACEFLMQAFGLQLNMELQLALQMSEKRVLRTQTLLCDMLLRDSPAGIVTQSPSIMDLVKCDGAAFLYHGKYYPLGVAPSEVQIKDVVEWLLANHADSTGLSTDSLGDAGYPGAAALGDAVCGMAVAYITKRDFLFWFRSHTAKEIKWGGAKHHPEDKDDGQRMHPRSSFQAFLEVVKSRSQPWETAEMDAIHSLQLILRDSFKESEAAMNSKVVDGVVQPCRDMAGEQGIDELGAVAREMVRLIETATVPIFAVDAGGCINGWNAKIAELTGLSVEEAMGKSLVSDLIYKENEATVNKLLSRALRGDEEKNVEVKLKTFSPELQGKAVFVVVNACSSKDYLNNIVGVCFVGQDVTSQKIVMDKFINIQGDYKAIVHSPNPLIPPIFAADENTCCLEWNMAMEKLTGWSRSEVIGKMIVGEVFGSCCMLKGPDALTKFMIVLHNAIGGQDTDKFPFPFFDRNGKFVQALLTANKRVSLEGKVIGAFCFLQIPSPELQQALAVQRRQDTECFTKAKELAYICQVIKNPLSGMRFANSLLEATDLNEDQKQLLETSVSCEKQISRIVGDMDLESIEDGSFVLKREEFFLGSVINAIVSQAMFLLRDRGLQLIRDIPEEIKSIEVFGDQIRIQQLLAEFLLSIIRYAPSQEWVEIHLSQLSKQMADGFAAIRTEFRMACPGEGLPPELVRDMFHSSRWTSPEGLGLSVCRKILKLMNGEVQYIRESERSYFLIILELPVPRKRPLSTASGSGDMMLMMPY
T1 sequence (Q84XU2 1-484 isoform Q84XU2-2 partner): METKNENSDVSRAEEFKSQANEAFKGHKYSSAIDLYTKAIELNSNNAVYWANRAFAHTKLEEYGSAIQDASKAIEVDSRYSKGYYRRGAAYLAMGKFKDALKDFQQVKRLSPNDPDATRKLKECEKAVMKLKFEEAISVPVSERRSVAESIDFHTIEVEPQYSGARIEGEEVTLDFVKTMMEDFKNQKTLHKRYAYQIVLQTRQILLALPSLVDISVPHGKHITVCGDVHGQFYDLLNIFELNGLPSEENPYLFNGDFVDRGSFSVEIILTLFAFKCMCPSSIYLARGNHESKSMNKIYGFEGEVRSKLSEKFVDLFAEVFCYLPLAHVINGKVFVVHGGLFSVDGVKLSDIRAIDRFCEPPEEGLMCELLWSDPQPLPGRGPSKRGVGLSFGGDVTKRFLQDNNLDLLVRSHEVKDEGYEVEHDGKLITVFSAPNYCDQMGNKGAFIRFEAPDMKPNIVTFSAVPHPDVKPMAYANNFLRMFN

“PAPP5: type 5 serine/threonine protein phosphatase of Arabidopsis thaliana interacting with phytochromes, SEQ ID NO: 4” was tested. Which “dephosphorylation by PAPP5 according to the form of phytochrome (Pfr vs Pr)” value [1] did it give?
Its value is “higher in Pfr phytochrome”.

And the “binding to phytochrome B” value (phytochrome B)?
The value was “has the property of binding”.
